Experimental data reported in publication PMC10419174, “WR1065 conjugated to thiol-PEG polymers as novel anticancer prodrugs: broad spectrum efficacy, synergism, and drug resistance reversal” (Frontiers in Oncology, 2023).

Columns and labels:
Strain-1 NHMECs (M99005) = experiment: NHMEC growth, trypan blue exclusion, 48-h treatment; type: cell-based, human
Excerpt: Normal human mammary epithelial cell (NHMEC) strains used to assess potential cytotoxicity of 4SP65 and 1LP65 were established from reduction mammoplasty tissue from a healthy donor (M99005 or ‘Strain-1’) ([53]) or purchased from ATCC (Manassas, VA, USA; batch#70043304 or ‘Strain-2’) or Cell Applications (San Diego, CA, USA; lot#1669 or ‘Strain-3’). Human cancer cell lines including HCC38, MDA-MB-231, A549, National Cancer Institute (NCI)-H460, NCI-H1437, NCI-H1975, DU145, LNCaP, PC3, PANC1, SKOV3, and HL60, which were free of Mycoplasma, were purchased from ATCC. HMESO1, PPMMill, and TOV21G cells, obtained from Dr. Brian Cunniff, were verified to be Mycoplasma negative using the LookOut® Mycoplasma PCR Detection Kit (Sigma-Aldrich) and to match previously annotated DNA fingerprints by the Vermont Integrative Genomics Resource DNA Analysis Facility.
To assess the effects of 4SP65 or 1LP65 on the growth of normal epithelium, experiments were performed using NHMEC strains from differing donors ([53]). Strain-1 NHMECs were plated at 5,000 cells/well in 24-well plates and allowed to reach 50% confluence before treatment with 0-150 µM 4SP65 for 48 h. Cell viability was determined using a hemocytometer and trypan blue exclusion assay. Two other NHMEC strains, exposed to 0-150 µM 4SP65 or 0-500 µM 1LP65 for 48 h, were handled in the same fashion except that viability of cells in 96-well plates was determined using CyQUANT dye. Due to the short life span of these NHMECs, standard curves were not generated and fluorescence readings were used as a surrogate marker of cell number ([54]).

Pancreas PANC-1 cells = experiment: cells
Experimental: (§1) The percentage of growth inhibition was calculated as follows: […]

[1] = tested on: Malignant pleural mesothelioma PPMMill cells; experiment: cells; conditions: for Fold increase in efficacy: drug alone ÷ drug in 4SP65-DDP combination
Experimental: as §1

[2] = 48-h treatment, amifostine ND = not definable up to 500 µM
[3] = drug alone, 48 h, 4SP65/cisplatin study
[4] = drug alone, 48 h, 4SP65/cisplatin study, ND = not definable, highest concentration in parentheses

Substance: 4-star-PEG-S-S-WR1065 [4SP65]
- IC50 (Strain-1 NHMECs (M99005); Strain-1 NHMECs): > 150 µM
- growth enhancement compared to sham-exposed control cells (Strain-1 NHMECs (M99005); Strain-1 cells, 5 µM): 336%
- growth enhancement compared to sham-exposed control cells (Strain-1 NHMECs (M99005); Strain-1 cells, 15 µM): 286%
- growth as % of the control cell growth (Strain-1 NHMECs (M99005); Strain-1 cells, 50 µM): 68%
- growth pattern (Strain-1 NHMECs (M99005); Strain-1 cells, 150 µM): growth enhancement
- CC50 (Pancreas PANC-1 cells): 5 ± 0.3 µM
- GI50 (Pancreas PANC-1 cells; [2]): 2.8 ± 0.6 µM
- IC50 (Pancreas PANC-1 cells; [2]): 3.7 ± 0.6 µM
- LC99 (Pancreas PANC-1 cells; [2]): 7.0 ± 0.5 µM
- TGI (Pancreas PANC-1 cells; [2]): 4.0 ± 0.4 µM
- Dose reduction value AMF ÷ 4SP65 (Pancreas PANC-1 cells; at GI50): 39 fold
- GI50 [1, 2]: 6 ± 1.7 µM
- IC50 [1, 2]: 7.4 ± 2 µM
- LC99 [1, 2]: 14.8 ± 2.9 µM
- TGI [1, 2]: 10.6 ± 3.0 µM
- Fold increase in efficacy ([1]; at GI50): 1.3 (NS) fold
- Fold increase in efficacy ([1]; at IC50): 1.3 (NS) fold
- Fold increase in efficacy ([1]; at LC50, GoE = gain of effect): 1.3 (NS) fold
- Fold increase in efficacy ([1]; at LC99, GoE = gain of effect): 1.3 (NS) fold
- Fold increase in efficacy ([1]; at TGI, GoE = gain of effect): 1.3 (NS) fold
- GI50 [1, 3]: 8.4 ± 1.5 µM
- IC50 [1, 3]: 10 ± 1.9 µM
- LC99 [1, 4]: 17.6 ± 3.5 µM
- TGI [1, 4]: 14.1 ± 3.3 µM
